Each structure is given as a SMILES string. Where only a bound is given, the exact number is not on record here.

Data set [1] deals with Human coronary smooth muscles cells (HCASMC). Description: HCASMC proliferation inhibition by Ciglitazone. The format is cell-based. To be noted: day four, both cell culture schemes, FIG. 1a. The procedure: Human coronary smooth muscles cells (HCASMC) were seeded in 24 well polystyrene tissue culture plates at a density of 5×10^3 cells per well. Two different feeding and reading strategies were employed. Strategy 1: Cells were plated in cell culture media containing various concentrations of Ciglitazone and incubated at 37° C. for 48 hours. After the initial 48 hour incubation, the Ciglitazone containing plating media was changed and the cells were fed with drug free media and incubated for an additional 48 hours and then read. Strategy 2: Cells were plated in cell culture media containing various concentrations of Ciglitazone and incubated at […] for 48 hours. After the initial 48 hour incubation, the Ciglitazone-containing plating media was changed and the cells were fed with Ciglitazone-containing media and incubated for an additional 48 hours and then read. On day four cultures were analyzed to determine the proliferation inhibition effects of Ciglitazone. FIG. 1a graphically depicts the percent inhibition at Ciglitazone levels between 0.001 μg/mL to 50 μg/mL for both cell culture schemes. It can be seen from FIG. 1a that significant HCASMC inhibition (>50% inhibition) begins at a dosage of 10 μg/mL and rises dramatically to nearly 100% at 50 μg/mL. FIG. 1b graphically depicts the same results in bar graph form based on cell counts.

A further data set has as its system HCASMCs. Description: Ciglitazone cytotoxicity against HCASMCs (lactate dehydrogenase). The format is cell-based, Human. The settings on record: HCASMC, 0.001 μg/mL to 10 μg/mL Ciglitazone, after 24 hours, FIG. 1c. The method, then:
Ciglitazone cytotoxicity against HCASMCs was evaluated by seeding 24 well cell culture plates with 5.0×10^5HCASM cells/mL of cell culture media containing from 0.001 μg/mL to 10 μg/mL of Ciglitazone. Samples were taken after 24 hours and tested for lactate dehydrogenase […] concentration using methods known to those having ordinary skill in the art. Elevated LDL levels indicates cytotoxicity. FIG. 1c graphically depicts the cytotoxicity testing results.

For data set [2], the system named is Human coronary artery endothelial cells (HCAEC). The experiment in a line: HCAEC proliferation inhibition by Ciglitazone. The class given is cell-based. To be noted: Endothelial cell, day four, both cell culture schemes, FIG. 2a. The procedure:
Human coronary artery endothelial cells (HCAEC) were seeded in 24 well polystyrene tissue culture plates at a density of 5×10^3 cells per well. Two different feeding strategies and reading strategies were employed. Strategy 1: Cells were plated in cell culture media containing various concentrations of Ciglitazone and incubated at 37° C. for 48 hours. After the initial 48 hour incubation, the Ciglitazone containing plating media was changed and the cells were fed with drug free media and incubated for an additional 48 hours and then read. Strategy 2: Cells were plated in cell culture media containing various concentrations of Ciglitazone and incubated at […] for 48 hours. After the initial 48 hour incubation, the Ciglitazone-containing plating media was changed and the cells were fed with Ciglitazone-containing media and incubated for an additional 48 hours and then read. On day four cultures were analyzed to determine the proliferation inhibition effects of Ciglitazone. […] graphically depicts the percent inhibition at Ciglitazone levels between 0.001 μg/mL to 50 μg/mL for both cell culture schemes. It can be seen from FIG. 2a that significant HCAEC inhibition (>50% inhibition) begins at a dosage of 5 μg/mL and rises dramatically to nearly 100% at 10 μg/mL. FIG. 2b graphically depicts the same results in bar graph form based on cell counts.

In a further data set the test system is HCAECs. Description: Ciglitazone cytotoxicity against HCAECs (lactate dehydrogenase). The format is cell-based, Human. To be noted: HCAEC, 0.001 μg/mL to 10 μg/mL Ciglitazone, after 24 hours, FIG. 2c. The method, then:
Ciglitazone cytotoxicity against HCAECs was evaluated by seeding 24 well cell culture plates with 5.0×10^5 HCAE cells/mL of cell culture media containing from 0.001 μg/mL to 10 μg/mL of Ciglitazone. Samples were taken after 24 hours and tested for lactate dehydrogenase […] concentration using methods known to those having ordinary skill in the art. Elevated LDL levels indicate cytotoxicity. FIG. 2c graphically depicts the cytotoxicity testing results.

On to `CC1(COc2ccc(CC3SC(=O)NC3=O)cc2)CCCCC1` (stereo not drawn) [Ciglitazone], for which the inhibition at 10 µg/mL in data set [1] (10 μg/mL Ciglitazone) was > 50%; in data set [2] (10 μg/mL Ciglitazone), ~100%. For the same molecule, the inhibition at 50 µg/mL in data set [1] (50 μg/mL Ciglitazone) is ~100%. For the same molecule, the “cytotoxicity (lactate dehydrogenase concentration)” value in the data set on HCASMCs and in the data set on HCAECs was “No cytotoxicity was detected” each time. Also, in data set [2] (5 μg/mL Ciglitazone), the inhibition at 5 µg/mL was > 50%.

As usually defined, the inhibition is the relative decrease from the control value, in per cent. The low end stands for little suppression, the high end for strong suppression.
